The target in one experiment is T1, Kv1.3 potassium channel (Homo sapiens, UniProt P22001).
T1 construct: expressed in transfected cells
The experiment is described as follows: Kv1.3 potassium channel blocker activity, automated whole-cell patch clamp (Patchliner). It counts as cell-based. A digest of the protocol: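 IC50 came from Hill-equation fits of peak and AUC currents from the final pulse at each concentration, normalized to compound-free control. Compounds applied consecutively at 30 nM to 100 μM (up to 0.3% DMSO) to Kv1.3-expressing CHO-K1 cells, P/4 leak subtraction. Pulses were +40 mV, 100 ms, from −90 mV holding, at 0.1 Hz on Patchliner.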
A general note: The patch-clamp technique gives a direct electrical read-out from membranes.

The next experiment addresses T2, hERG channel (Homo sapiens, UniProt Q12809).
T2 construct: expressed in transfected cells
Kind of experiment: hERG electrophysiology, automated whole-cell patch clamp (Patchliner). Format: cell-based. A digest of the protocol: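 Currents were recorded at 0.3 Hz from −80 mV, stepping to +20 mV then −50 mV (300 ms each), in stably transfected CHO-K1 cells. Concentrations (30 nM–100 μM, up to 0.3% DMSO) were added sequentially without washout. IC50 came from Hill fits of control-normalized AUC/peak of each train's final pulse.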
For orientation: hERG is a cardiac potassium channel; its block is linked to QT prolongation.

Setting [1] is: Kv1.3 potassium channel, whole-cell patch clamp.
Where [2] appears, read: hERG channel, whole-cell patch clamp.
The mark [3] stands for this setting: CHO-K1 cells stably expressing Kv1.3, 100 ms pulses from -90 mV to +40 mV, 0.1 Hz.
The mark [4] stands for this setting: CHO-K1 cells stably expressing hERG, +20 mV 300 ms, -50 mV 300 ms tail current, 0.3 Hz.

SMILES strings stand for the structures.

Broadly, the IC50 is the concentration that inhibits the measured activity by half. The low end stands for greater potency in that assay, the high end for weaker potency in that assay.

T2 sequence (Q12809 whole entry): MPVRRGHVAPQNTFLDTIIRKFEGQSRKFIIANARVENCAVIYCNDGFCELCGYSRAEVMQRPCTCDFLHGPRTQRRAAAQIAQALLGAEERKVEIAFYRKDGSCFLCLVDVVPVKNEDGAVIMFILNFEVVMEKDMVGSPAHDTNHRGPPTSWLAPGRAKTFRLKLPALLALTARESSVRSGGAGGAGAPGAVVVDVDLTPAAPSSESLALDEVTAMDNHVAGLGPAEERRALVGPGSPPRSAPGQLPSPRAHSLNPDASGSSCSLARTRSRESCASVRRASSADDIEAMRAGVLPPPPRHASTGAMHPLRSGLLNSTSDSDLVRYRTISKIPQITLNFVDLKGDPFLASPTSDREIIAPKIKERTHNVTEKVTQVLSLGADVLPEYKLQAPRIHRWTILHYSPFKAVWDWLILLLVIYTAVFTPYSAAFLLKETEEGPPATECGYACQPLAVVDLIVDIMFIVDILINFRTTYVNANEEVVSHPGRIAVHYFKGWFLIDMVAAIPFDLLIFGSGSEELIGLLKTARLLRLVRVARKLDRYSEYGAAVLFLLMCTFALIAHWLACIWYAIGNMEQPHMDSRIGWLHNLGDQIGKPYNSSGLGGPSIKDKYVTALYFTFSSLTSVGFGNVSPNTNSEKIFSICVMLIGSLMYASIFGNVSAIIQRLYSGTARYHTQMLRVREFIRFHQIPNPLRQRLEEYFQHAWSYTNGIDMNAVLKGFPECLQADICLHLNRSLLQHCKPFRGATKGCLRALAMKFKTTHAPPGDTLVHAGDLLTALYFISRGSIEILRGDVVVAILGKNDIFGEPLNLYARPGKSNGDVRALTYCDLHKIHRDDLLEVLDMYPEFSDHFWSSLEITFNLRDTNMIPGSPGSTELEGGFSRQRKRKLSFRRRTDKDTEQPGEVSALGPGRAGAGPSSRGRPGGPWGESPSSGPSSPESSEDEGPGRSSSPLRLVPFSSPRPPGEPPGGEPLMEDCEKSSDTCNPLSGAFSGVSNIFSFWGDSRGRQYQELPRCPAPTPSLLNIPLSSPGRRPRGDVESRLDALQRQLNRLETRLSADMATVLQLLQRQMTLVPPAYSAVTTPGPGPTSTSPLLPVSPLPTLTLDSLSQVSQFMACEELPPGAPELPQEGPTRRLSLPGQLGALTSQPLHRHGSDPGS
T1 sequence (P22001 whole entry): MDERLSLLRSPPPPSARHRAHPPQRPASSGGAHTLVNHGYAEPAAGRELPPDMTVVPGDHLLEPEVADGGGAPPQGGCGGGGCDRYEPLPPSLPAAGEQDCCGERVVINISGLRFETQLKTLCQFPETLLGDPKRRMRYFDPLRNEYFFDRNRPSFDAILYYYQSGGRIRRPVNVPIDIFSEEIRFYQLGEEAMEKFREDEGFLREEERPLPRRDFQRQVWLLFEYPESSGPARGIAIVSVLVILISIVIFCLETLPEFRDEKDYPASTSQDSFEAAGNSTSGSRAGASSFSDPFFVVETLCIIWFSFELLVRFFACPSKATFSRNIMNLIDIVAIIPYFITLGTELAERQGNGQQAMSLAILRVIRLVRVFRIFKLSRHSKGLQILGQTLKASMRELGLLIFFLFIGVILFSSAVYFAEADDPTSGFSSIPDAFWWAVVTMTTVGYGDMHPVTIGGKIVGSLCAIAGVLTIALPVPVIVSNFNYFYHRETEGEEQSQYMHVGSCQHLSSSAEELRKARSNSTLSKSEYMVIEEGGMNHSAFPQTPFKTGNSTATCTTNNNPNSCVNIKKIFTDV

Turning to `COC[C@H](O)CN1CC(=O)N2C[C@@H](c3c(O)ccc(Cl)c3Cl)C[C@H]2C1` (single isomer, unassigned; isomer 2) [Compound 153], the IC50 against Kv1.3 potassium channel (setting [1]) was less than 1 µM; on hERG channel (setting [2]), less than 30 µM.

Consider `O=C1C(CN2CC(O)C2)OC[C@@H]2C[C@H](c3c(O)ccc(Cl)c3Cl)CCN12` (stereo partly drawn) [Compound 183, (8R,9aS)-8-(2,3-dichloro-6-hydroxyphenyl)-3-[(3-hydroxyazetidin-1-yl)methyl]-hexahydro-1H-pyrido[2,1-c][1,4]oxazin-4-one], for which the figures for the IC50 at Kv1.3 potassium channel (setting [1]) and against hERG channel (setting [2]) were less than 1 µM and less than 30 µM, respectively.

In the case of `COC(CO)CN1CC(=O)N2C[C@@H](c3c(O)ccc(Cl)c3Cl)C[C@H]2C1` (stereo partly drawn) [Compound 156, (7R,8aS)-7-(2,3-dichloro-6-hydroxyphenyl)-2-(3-hydroxy-2-methoxypropyl) hexahydropyrrolo[1,2-a]pyrazin-4-one], the IC50 at Kv1.3 potassium channel (setting [1]) is less than 1 µM; against hERG channel (setting [2]), more than 30 µM.

With `O=C1C[C@H](N2CC[C@H](O)C2)C[C@@H]2C[C@H](c3c(O)ccc(Cl)c3Cl)CN12` (single isomer, unassigned) [Compound 193], the IC50 against Kv1.3 potassium channel (setting [1]) was less than 1 µM; at hERG channel (setting [2]), more than 30 µM.

In the case of `O=C1C[C@@H](O)C[C@@H]2C[C@H](c3c(O)ccc(Cl)c3Cl)CN12` (single isomer, unassigned; isomer 1) [Compound 61], the IC50 against Kv1.3 potassium channel (setting [3]) is less than 1 µM; at hERG channel (setting [4]), more than 30 µM.

With `O=C1CN(C[C@H]2CCN2)C[C@@H]2C[C@H](c3c(O)ccc(Cl)c3Cl)CN12` (single isomer, unassigned; isomer 2) [Compound 140], the IC50 against Kv1.3 potassium channel (setting [1]) is less than 1 µM; on hERG channel (setting [2]), more than 30 µM.

For `NC(=O)N1CCC(=O)N2C[C@@H](c3c(O)ccc(Cl)c3Cl)C[C@H]2C1` [Compound 97, (8R,9aS)-8-(2,3-dichloro-6-hydroxyphenyl)-5-oxo-hexahydro-1H-pyrrolo [1,2-a][1,4]diazepine-2-carboxamide], the values for the IC50 at Kv1.3 potassium channel (setting [1]) and on hERG channel (setting [2]) were less than 1 µM and more than 30 µM, respectively.

Take `O=C([C@@H](O)CO)N1CC(=O)N2C[C@@H](c3c(O)ccc(Cl)c3Cl)C[C@H]2C1` [Compound 34, (7R,8aS)-7-(2,3-dichloro-6-hydroxyphenyl)-2-[(2S)-2,3-dihydroxypropanoyl]-hexahydropyrrolo [1,2-a]pyrazin-4-one]: the IC50 against Kv1.3 potassium channel (setting [3]) is less than 1 µM; at hERG channel (setting [4]), more than 30 µM.

As to `O=C(CO)NC[C@H]1OC(=O)N2C[C@@H](c3c(O)ccc(Cl)c3Cl)C[C@@H]12` (single isomer, unassigned) [Compound 275], the IC50 on Kv1.3 potassium channel (setting [1]) is less than 1 µM; against hERG channel (setting [2]) it was more than 30 µM.

Regarding `O=C(CO)NCC1OC[C@@H]2C[C@H](c3c(O)ccc(Cl)c3Cl)CCN2C1=O` (stereo partly drawn) [Compound 185, N-[[(8R,9aS)-8-(2,3-dichloro-6-hydroxyphenyl)-4-oxo-hexahydro-1H-pyrido[2,1-c][1,4]oxazin-3-yl]methyl]-2-hydroxyacetamide], the IC50 on Kv1.3 potassium channel (setting [1]) was less than 1 µM; at hERG channel (setting [2]), more than 30 µM.

For the compound `CC(=O)NC1CC(=O)N2C[C@@H](c3c(O)ccc(Cl)c3Cl)C[C@H]2C1` (stereo partly drawn) [Compound 206, N-[(2R,8aS)-2-(2,3-dichloro-6-hydroxyphenyl)-5-oxo-hexahydro-1H-indolizin-7-yl]acetamide], the IC50 against Kv1.3 potassium channel (setting [1]) was less than 1 µM; against hERG channel (setting [2]) it was more than 30 µM.

`O=C1O[C@@H](CN2CCNCC2)[C@@H]2C[C@H](c3c(O)ccc(Cl)c3Cl)CN12` (single isomer, unassigned) [Compound 279]: the values for the IC50 against Kv1.3 potassium channel (setting [1]) and against hERG channel (setting [2]) were less than 1 µM and less than 30 µM, respectively.

`O=C(C1OC(=O)N2C[C@@H](c3c(O)ccc(Cl)c3Cl)C[C@@H]12)N1CCNCC1` (stereo partly drawn) [Compound 289, (6R,7aS)-6-(2,3-dichloro-6-hydroxyphenyl)-1-(piperazine-1-carbonyl)-tetrahydro-1H-pyrrolo[1,2-c][1,3]oxazol-3-one]: the values for the IC50 at Kv1.3 potassium channel (setting [1]) and at hERG channel (setting [2]) were less than 1 µM and more than 30 µM, respectively.

For `O=C1C[C@H](NCCO)C[C@@H]2C[C@H](c3c(O)ccc(Cl)c3Cl)CN12` (single isomer, unassigned) [Compound 203], the IC50 at Kv1.3 potassium channel (setting [1]) is less than 1 µM; at hERG channel (setting [2]), more than 30 µM.

As to `O=C1O[C@@H](CO)[C@@H]2C[C@H](c3c(O)ccc(Cl)c3Cl)CN12` (single isomer, unassigned) [Compound 253], the IC50 is less than 1 µM at Kv1.3 potassium channel (setting [1]) and more than 30 µM against hERG channel (setting [2]).

For the compound `O=C1O[C@H]([C@@H](O)CO)[C@@H]2C[C@H](c3c(O)ccc(Cl)c3Cl)CN12` (single isomer, unassigned) [Compound 262], the IC50 is less than 1 µM on Kv1.3 potassium channel (setting [1]) and more than 30 µM at hERG channel (setting [2]).

In the case of `O=C(C[C@H](O)C1CC1)N1CC(=O)N2C[C@@H](c3c(O)ccc(Cl)c3Cl)C[C@H]2C1` [Compound 71, (7R,8aS)-2-[(3S)-3-cyclopropyl-3-hydroxypropanoyl]-7-(2,3-dichloro-6-hydroxyphenyl)-hexahydropyrrolo [1,2-a]pyrazin-4-one], the IC50 at Kv1.3 potassium channel (setting [1]) was less than 1 µM; at hERG channel (setting [2]), less than 30 µM.

Regarding `O=C1CN([C@H]2C[C@@](O)(CO)C2)C[C@@H]2C[C@H](c3c(O)ccc(Cl)c3Cl)CN12` (single isomer, unassigned; isomer 2) [Compound 164], the IC50 at Kv1.3 potassium channel (setting [1]) is less than 1 µM; against hERG channel (setting [2]), more than 30 µM.

In the case of `O=C1CCC[C@@H]2C[C@H](c3c(O)ccc(Cl)c3Cl)CN12` [Compound 223, (2R,8aR)-2-(2,3-dichloro-6-hydroxyphenyl)-hexahydro-1H-indolizin-5-one], the IC50 at Kv1.3 potassium channel (setting [1]) is less than 1 µM; against hERG channel (setting [2]) it was more than 30 µM.

Turning to `O=C1CN(C2COCC2O)C[C@@H]2C[C@H](c3c(O)ccc(Cl)c3Cl)CN12` (stereo partly drawn) [Compound 149, (7R,8aS)-7-(2,3-dichloro-6-hydroxyphenyl)-2-(4-hydroxyoxolan-3-yl)-hexahydropyrrolo[1,2-a]pyrazin-4-one], the IC50 at Kv1.3 potassium channel (setting [1]) is less than 1 µM; at hERG channel (setting [2]) it was more than 30 µM.

For the compound `C[C@@H](O)CN1CC(=O)N2C[C@@H](c3c(O)ccc(Cl)c3Cl)C[C@H]2C1` (single isomer, unassigned; isomer 1) [Compound 150], the half-inhibitory concentration (IC50) was less than 1 µM against Kv1.3 potassium channel (setting [1]) and more than 30 µM against hERG channel (setting [2]).

With `O=C(NC1CNC1)[C@@H]1CC(=O)N2C[C@@H](c3c(O)ccc(Cl)c3Cl)C[C@H]2C1` (single isomer, unassigned) [Compound 236], the IC50 against Kv1.3 potassium channel (setting [1]) was less than 1 µM; at hERG channel (setting [2]), more than 30 µM.

On to `NCC1OC[C@@H]2C[C@H](c3c(O)ccc(Cl)c3Cl)CCN2C1=O` (stereo partly drawn) [Compound 180, (8R,9aS)-3-(aminomethyl)-8-(2,3-dichloro-6-hydroxyphenyl)-hexahydro-1H-pyrido[2,1-c][1,4]oxazin-4-one], for which the IC50 on Kv1.3 potassium channel (setting [1]) was less than 1 µM; on hERG channel (setting [2]), less than 30 µM.

Consider `O=C(N1CC[C@H](O)C1)N1CC(=O)N2C[C@@H](c3c(O)ccc(Cl)c3Cl)C[C@H]2C1` [Compound 102, (7R,8aS)-7-(2,3-dichloro-6-hydroxyphenyl)-2-[(3S)-3-hydroxypyrrolidine-1-carbonyl]-hexahydropyrro[1,2-a]pyrazine-4-one], for which the IC50 against Kv1.3 potassium channel (setting [1]) is less than 1 µM; against hERG channel (setting [2]), more than 30 µM.

Take `O=C1CN(C2CNC2)C[C@@H]2C[C@H](c3c(O)ccc(Cl)c3Cl)CN12` [Compound 129, (7R,8aS)-2-(azetidin-3-yl)-7-(2,3-dichloro-6-hydroxyphenyl)-hexahydropyrrolo [1,2-a]pyrazin-4-one]: the half-maximal inhibitory concentration (IC50) at Kv1.3 potassium channel (setting [1]) was less than 1 µM; against hERG channel (setting [2]) it was more than 30 µM.

Consider `O=C(C[C@@H](O)C(F)F)N1CC(=O)N2C[C@@H](c3c(O)ccc(Cl)c3Cl)C[C@H]2C1` [Compound 76, (7R,8aS)-7-(2,3-dichloro-6-hydroxyphenyl)-2-[(3R)-4,4-difluoro-3-hydroxybutanoyl]-hexahydropyrrolo [1,2-a]pyrazin-4-one], for which the IC50 against Kv1.3 potassium channel (setting [1]) was less than 1 µM; on hERG channel (setting [2]) it was more than 30 µM.

Regarding `O=C1C[C@@H](N2CC(=O)N3C[C@@H](c4c(O)ccc(Cl)c4Cl)C[C@H]3C2)CN1` (single isomer, unassigned; isomer 1) [Compound 160], the IC50 on Kv1.3 potassium channel (setting [1]) was less than 1 µM; on hERG channel (setting [2]), more than 30 µM.

As for `O=C1CN(C2CC[C@@H](O)[C@H]2O)C[C@@H]2C[C@H](c3c(O)ccc(Cl)c3Cl)CN12` (relative stereo) [Compound 136, (7R,8aS)-7-(2,3-dichloro-6-hydroxyphenyl)-2-[(2S,3R)-rel-2,3-dihydroxycyclopentyl]-hexahydropyrrolo [1,2-a]pyrazin-4-one], the IC50 is less than 1 µM against Kv1.3 potassium channel (setting [1]) and more than 30 µM on hERG channel (setting [2]).

`C[C@@H](O)C(=O)N1CC(=O)N2CC[C@@H](c3c(O)ccc(Cl)c3Cl)C[C@H]2C1` [Compound 16, (8R,9aS)-8-(2,3-dichloro-6-hydroxyphenyl)-2-[(2R)-2-hydroxypropanoyl]-hexahydro-1H-pyrido[1,2-a]pyrazin-4-one]: the figures for the IC50 against Kv1.3 potassium channel (setting [3]) and on hERG channel (setting [4]) were less than 1 µM and more than 30 µM, respectively.

Turning to `O=C1C[C@H](O)[C@H](O)[C@@H]2C[C@H](c3c(O)ccc(Cl)c3Cl)CN12` (relative stereo) [Compound 225, (7S,8R)-rel-(2R, 8aS)-2-(2,3-dichloro-6-hydroxyphenyl)-7,8-dihydroxy-hexahydro-1H-indolizin-5-one], the IC50 against Kv1.3 potassium channel (setting [1]) is less than 1 µM; on hERG channel (setting [2]), more than 30 µM.

On to `CN1CC(N2CC(=O)N3C[C@@H](c4c(O)ccc(Cl)c4Cl)C[C@H]3C2)C1` [Compound 132, (7R,8aS)-7-(2,3-dichloro-6-hydroxyphenyl)-2-(1-methylazetidin-3-yl)-hexahydropyrrolo [1,2-a]pyrazin-4-one], for which the IC50 was less than 1 µM against Kv1.3 potassium channel (setting [1]) and less than 30 µM against hERG channel (setting [2]).

(Values after US20230049231A1 (priority 2019, published 2023).)
